Assay results from patent publication US20230227449A1, “AMIDOPYRIMIDONE DERIVATIVES” (Hoffmann-La Roche Inc., priority 2020, published 2023).

biological target: Recombinant human Mat2a (Homo sapiens, UniProt P31153); experiment: Determination of Mat2A activity (384 well absorbance-based assay, Biomol Green); format: biochemical; details: 12.5 nM Mat2A, 100 μM ATP and Methionine, 2% DMSO, 120 minutes at RT, absorbance at 635 nm
Procedure, shortened: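 Recombinant human Mat2A (12.5 nM) was preincubated with compound for 15 min at RT in HEPES pH 7.5 buffer with 2% DMSO. The reaction was started with 100 μM each of ATP and methionine and ran 120 min at RT. Phosphate was detected with Biomol Green by absorbance at 635 nm.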

Recombinant human Mat2a, sequence (P31153 whole entry): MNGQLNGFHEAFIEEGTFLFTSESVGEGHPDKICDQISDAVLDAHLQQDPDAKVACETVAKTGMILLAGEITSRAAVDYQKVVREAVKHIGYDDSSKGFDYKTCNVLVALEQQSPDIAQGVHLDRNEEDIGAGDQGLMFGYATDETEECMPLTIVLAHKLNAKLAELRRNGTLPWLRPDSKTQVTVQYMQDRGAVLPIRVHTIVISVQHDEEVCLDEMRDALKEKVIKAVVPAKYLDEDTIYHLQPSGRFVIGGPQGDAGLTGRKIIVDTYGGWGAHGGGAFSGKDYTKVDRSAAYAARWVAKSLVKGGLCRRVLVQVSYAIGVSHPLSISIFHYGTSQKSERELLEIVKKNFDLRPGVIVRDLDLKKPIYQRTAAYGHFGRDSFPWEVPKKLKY

IC50 [µM]	Structure (SMILES)
< 0.013	Nc1nc(=O)n(-c2cccc(Cl)c2F)c2nc(C3CC3)ccc12 [Example 161, 4-amino-1-(3-chloro-2-fluorophenyl)-7-cyclopropylpyrido[2,3-d]pyrimidin-2-one]
< 0.013	Nc1nc(=O)n(-c2cccc3c2CCO3)c2nc(C(F)(F)F)ccc12 [Example 162, 4-amino-1-(2,3-dihydrobenzofuran-4-yl)-7-(trifluoromethyl)pyrido[2,3-d]pyrimidin-2 (1H)-one]
0.031	Nc1nc(=O)n(-c2cccc(OC(F)(F)F)n2)c2nc(C3CC3)ccc12 [Example 163, 4-amino-7-cyclopropyl-1-[6-(trifluoromethoxy)pyridin-2-yl]pyrido[2,3-d]pyrimidin-2-one]
< 0.013	Nc1nc(=O)n(-c2cccc3[nH]ccc23)c2nc(C3CC3)ccc12 [Example 164, 4-amino-7-cyclopropyl-1-(1H-indol-4-yl)pyrido[2,3-d]pyrimidin-2-one]
< 0.013	Cc1c(F)cccc1-n1c(=O)nc(N)c2ccc(C(F)(F)F)nc21 [Example 165, 4-amino-1-(3-fluoro-2-methylphenyl)-7-(trifluoromethyl)pyrido[2,3-d]pyrimidin-2 (1H)-one]
